Tests used:
[1] = molecular target: T1, BCDIN3D (Homo sapiens, UniProt Q7Z5W3); test: BCDIN3D IC50 RFMS (RapidFire) assay with mini-helix; assay type: biochemical; settings: 25 nM enzyme
T1 sequence (Q7Z5W3 1-292): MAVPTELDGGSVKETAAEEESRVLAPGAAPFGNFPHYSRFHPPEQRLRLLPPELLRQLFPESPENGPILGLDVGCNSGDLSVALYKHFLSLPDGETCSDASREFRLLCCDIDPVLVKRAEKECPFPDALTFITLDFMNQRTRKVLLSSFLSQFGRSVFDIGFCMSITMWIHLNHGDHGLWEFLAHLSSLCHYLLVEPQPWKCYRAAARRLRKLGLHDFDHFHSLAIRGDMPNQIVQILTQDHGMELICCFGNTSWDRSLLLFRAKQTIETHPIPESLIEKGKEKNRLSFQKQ
Outline: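 SAH formation was measured by RapidFire mass spectrometry with D4- and 13C10-SAH internal standards after TCA quench. Substrates 6 μM SAM and 0.2 μM mini-helix reacted 1 h at 37 °C with 25 nM enzyme, which had been preincubated 10 min with compound (1% DMSO) in Tris pH 8.0 buffer with DTT, EDTA, BSA.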

[2] = molecular target: T1, BCDIN3D; test: BCDIN3D InCellPulse thermal stability assay in transfected A549 cells; assay type: cell-based; settings: heat shock 58° C. 15 min
Outline: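 Thermal stabilisation read-out: after a 15 min 58 °C heat shock, ePL-tagged BCDIN3D in transiently transfected A549 cells (1500/well) was quantified by enzyme-fragment complementation luminescence. Compounds were pre-incubated with cells 1 h at 37 °C, 0.6% DMSO final.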

[3] = mini-helix substrate 0.2 μM, SAM 6 μM
[4] = transiently transfected A549 cells
[5] = mini-helix 0.2 μM and SAM 6 μM as substrates, 1 hr at 37° C.
[6] = A549 cells transiently transfected with ePL-BCDIN3D, 1 h pre-incubation

IC50 [1, 3] | IC50 [2, 4] | IC50 [1, 5] | IC50 [2, 6] | Structure (SMILES)
325 nM | 1940 nM |  |  | [2H]C([2H])([2H])n1ncc2c(NC(C)(C)C)nc(NCC(C)(N)c3ccccc3)nc21 (centres unmarked) [Compound 4.01, N6-(2-Amino-2-phenyl-propyl)-N4-tert-butyl-1-(trideuteriomethyl)pyrazolo[3,4-d]pyrimidine-4,6-diamine]
164 nM | 439 nM |  |  | Cn1ncc2c(NCC3CCC3F)nc(NC[C@H](N)c3ccccc3)nc21 (stereo partly drawn) [Compound 4.112, N6-[(2R)-2-amino-2-phenyl-ethyl]-N4-[(2-fluorocyclobutyl)methyl]-1-methyl-pyrazolo[3,4-d]pyrimidine-4,6-diamine]
46.6 nM | 610 nM |  |  | [2H]C([2H])([2H])n1ncc2c(Nc3ccc(C(F)(F)F)nc3)nc(NCC(C)(N)c3ccccc3)nc21 (centres unmarked) [Compound 4.27, N6-(2-amino-2-phenyl-propyl)-1-(trideuteriomethyl)-N4-[6-(trifluoromethyl)-3-pyridyl]pyrazolo[3,4-d]pyrimidine-4,6-diamine]
450 nM | 580 nM |  |  | Cn1ncc2c(N[C@H]3CCC(F)(F)C3)nc(NC[C@H](N)c3ccccc3)nc21 [Compound 4.126, N6-[(2R)-2-amino-2-phenylethyl]-N4-[(1S)-3,3-difluorocyclopentyl]-1-methyl-1H-pyrazolo[3,4-d]pyrimidine-4,6-diamine]
6.1 nM | 112 nM |  |  | Cn1ncc2c(NCC3CC3(C)C)nc(NC[C@H](N)c3ccccc3)nc21 (stereo partly drawn) [Compound 4.62, N6-[(2R)-2-amino-2-phenyl-ethyl]-N4-[(2,2-dimethylcyclopropyl)methyl]-1-methyl-pyrazolo[3,4-d]pyrimidine-4,6-diamine]
290 nM | 570 nM |  |  | Cn1ncc2c(NC3CC4(CC(O)C4)C3)nc(NC[C@H](N)c3ccccc3)nc21 (stereo partly drawn) [Compound 4.124, 6-[(6-{[(2R)-2-amino-2-phenylethyl]amino}-1-methyl-1H-pyrazolo[3,4-d]pyrimidin-4-yl)amino]spiro[3.3]heptan-2-ol]
321 nM | 480 nM |  |  | CC(C)CNc1nc(NC[C@H](N)c2ccccc2)nc2c1cnn2C [Compound 4.103, N6-[(2R)-2-amino-2-phenyl-ethyl]-N4-isobutyl-1-methyl-pyrazolo[3,4-d]pyrimidine-4,6-diamine]
3860 nM | 7400 nM |  |  | Cn1ncc2c(N3CCCC3)nc(NCC(N)c3ccccc3)nc21 (centres unmarked) [Compound 4.48, N′-(1-methyl-4-pyrrolidin-1-ylpyrazolo[3,4-d]pyrimidin-6-yl)-1-phenylethane-1,2-diamine]
470 nM | 1870 nM |  |  | CNc1nc(NCC(N)c2cccc(Br)c2)nc2c1cnn2C (centres unmarked) [Compound 5.17, 6-N-[2-amino-2-(3-bromophenyl)ethyl]-4-N,1-dimethylpyrazolo[3,4-d]pyrimidine-4,6-diamine]

Second part, the molecule before the results:

Structure (SMILES) | IC50 [1, 3] | IC50 [2, 4] | IC50 [1, 5] | IC50 [2, 6]
Cn1ncc2c(Nc3ccc(C(F)(F)F)cc3)nc(NCC(N)CF)nc21 (centres unmarked) [Compound 3.26, 6-N-(2-amino-3-fluoropropyl)-1-methyl-4-N-[4-(trifluoromethyl)phenyl]pyrazolo[3,4-d]pyrimidine-4,6-diamine] | 3000 nM | 4030 nM |  | 
Cn1ncc2c(Nc3cccc(Oc4ccccc4)c3)nc(NCCN)nc21 [Compound 1.04, N6-(2-aminoethyl)-1-methyl-N4-(3-phenoxyphenyl)-1H-pyrazolo[3,4-d]pyrimidine-4,6-diamine] |  |  | 1260 nM | 1530 nM
COc1ccc(C(C)Nc2nc(NCCN)nc3c2cnn3C)cc1Cl (centres unmarked) [Compound 1.06, N6-(2-aminoethyl)-N4-[1-(3-chloro-4-methoxyphenyl)ethyl]-1-methyl-1H-pyrazolo[3,4-d]pyrimidine-4,6-diamine] |  |  | 1680 nM | 2930 nM
COc1ccc(-c2cccc(Nc3nc(NCCN)nc4c3cnn4C)c2)cc1 [Compound 1.15, N6-(2-aminoethyl)-N4-{4′-methoxy-[1,1′-biphenyl]-3-yl}-1-methyl-1H-pyrazolo[3,4-d]pyrimidine-4,6-diamine] |  |  | 541 nM | 1020 nM
